PMC6630470, “Anomeric Spironucleosides of β-D-Glucopyranosyl Uracil as Potential Inhibitors of Glycogen Phosphorylase” (Molecules, 2019)

Target: T1, rabbit muscle glycogen phosphorylase b (RMGPb) (Oryctolagus cuniculus, UniProt P00489)
T1 construct: gene PYGM
T1 sequence (P00489 2-843): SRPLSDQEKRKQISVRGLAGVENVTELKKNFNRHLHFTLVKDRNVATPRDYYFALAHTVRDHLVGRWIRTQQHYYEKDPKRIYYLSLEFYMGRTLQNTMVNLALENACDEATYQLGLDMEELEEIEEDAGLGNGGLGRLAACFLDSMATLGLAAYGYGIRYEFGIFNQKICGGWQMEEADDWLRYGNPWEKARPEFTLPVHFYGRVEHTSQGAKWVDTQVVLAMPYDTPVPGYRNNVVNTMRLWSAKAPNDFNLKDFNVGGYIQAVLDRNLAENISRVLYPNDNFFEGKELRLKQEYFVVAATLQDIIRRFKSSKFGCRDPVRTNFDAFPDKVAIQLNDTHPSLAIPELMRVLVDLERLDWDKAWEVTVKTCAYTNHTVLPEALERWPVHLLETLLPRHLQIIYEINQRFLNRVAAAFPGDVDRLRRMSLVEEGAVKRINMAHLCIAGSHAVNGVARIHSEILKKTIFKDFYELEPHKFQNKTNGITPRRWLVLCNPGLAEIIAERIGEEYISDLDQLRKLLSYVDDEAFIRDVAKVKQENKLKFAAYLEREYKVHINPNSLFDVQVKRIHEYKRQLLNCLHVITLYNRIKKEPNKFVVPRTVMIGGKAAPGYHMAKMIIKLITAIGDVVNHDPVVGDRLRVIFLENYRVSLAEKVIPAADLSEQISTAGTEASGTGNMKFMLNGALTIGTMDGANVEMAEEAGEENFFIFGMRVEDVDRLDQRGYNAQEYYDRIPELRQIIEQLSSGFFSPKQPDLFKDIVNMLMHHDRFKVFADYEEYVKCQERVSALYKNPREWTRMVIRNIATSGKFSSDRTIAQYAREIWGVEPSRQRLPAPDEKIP
Assay: enzyme kinetics in the direction of glycogen synthesis with purified, recrystallized RMGPb ([…] AMP, […] glycogen)
Format: biochemical
Conditions: read-out: % inhibition at 1 mM

inhibition at 1000 µM [%]	Compound
26	O=c1cc2n(c(=O)[nH]1)[C@]1(OC2)O[C@H](CO)[C@@H](O)[C@H](O)[C@H]1O [4a, (3R,3′R,4′S,5′S,6′R)-3′,4′,5′-Trihydroxy-6′-(hydroxymethyl)-3′,4′,5′,6′-tetrahydrospiro[oxazolo[3,4-c]pyrimidine-3,2′-pyran]-5,7(1H,6H)-dione]
35	O=c1cc2n(c(=O)[nH]1)[C@@]1(OC2)O[C@H](CO)[C@@H](O)[C@H](O)[C@H]1O [4b, (3S,3′R,4′S,5′S,6′R)-3′,4′,5′-Trihydroxy-6′-(hydroxymethyl)-3′,4′,5′,6′-tetrahydrospiro[oxazolo[3,4-c]pyrimidine-3,2′-pyran]-5,7(1H,6H)-dione]
